Test results as given in the supplement of paper PMC5908809.

Columns and labels:
[1] = test system: normal primary NK cells, pool 1 (3 donors) (IL-2 2.5 ng/mL); experiment: drug sensitivity score (DSS) (DSS units); higher = more sensitive; extreme values may be limits of the assay; conditions: 72 h
[2] = test system: IMC-1 (IL-2 20 ng/mL); experiment: as above; conditions: 72 h
[3] = test system: NK-YS (IL-2 2.5 ng/mL); experiment: as above; conditions: 72 h
[4] = test system: YT (IL-2 2.5 ng/mL); experiment: as above; conditions: 72 h
[5] = test system: DERL-7 (IL-2 2.5 ng/mL); experiment: as above; conditions: 72 h
[6] = test system: normal primary NK cells, pool 2 (3 donors) (IL-2 2.5 ng/mL); experiment: as above; conditions: 72 h
[7] = test system: NK-92 (IL-2 2.5 ng/mL); experiment: as above; conditions: 72 h
[8] = test system: KHYG-1 (IL-2 2.5 ng/mL); experiment: as above; conditions: 72 h
[9] = test system: normal primary NK cells, pool 1 (3 donors), resting (IL-2 0 ng/mL); experiment: as above; conditions: 72 h
[10] = test system: normal primary NK cells, pool 3 (3 donors) (IL-2 2.5 ng/mL); experiment: as above; conditions: 72 h
[11] = test system: NKL (IL-2 2.5 ng/mL); experiment: as above; conditions: 72 h
[12] = test system: KAI3 (IL-2 2.5 ng/mL); experiment: as above; conditions: 72 h
[13] = test system: SNK-6 (IL-2 2.5 ng/mL); experiment: as above; conditions: 72 h
[14] = test system: normal NK cells expanded with K562-aAPC; experiment: as above; conditions: 72 h; IL-2 2.5 ng/mL
Description: (§1)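 Drug sensitivity and resistance testing on K562-aAPC-expanded normal NK cells: 5 concentrations (10-fold steps over a 10,000-fold range), 72 h at 37 °C, viability by CellTiter-Glo normalised to DMSO and benzethonium chloride controls; DSS from the fitted curve.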

[15] = test system: normal NK cells expanded with K562-aAPC; experiment: percent inhibition of viability; higher = more inhibition; conditions: 72 h, IL-2 2.5 ng/mL
Description: as §1

[16] = test system: normal primary NK cells, pool 1 (3 donors) (IL-2 2.5 ng/mL); experiment: as above; conditions: 72 h
[17] = test system: IMC-1 (IL-2 20 ng/mL); experiment: as above; conditions: 72 h
[18] = test system: NK-YS (IL-2 2.5 ng/mL); experiment: as above; conditions: 72 h
[19] = test system: YT (IL-2 2.5 ng/mL); experiment: as above; conditions: 72 h
[20] = test system: DERL-7 (IL-2 2.5 ng/mL); experiment: as above; conditions: 72 h
[21] = test system: normal primary NK cells, pool 2 (3 donors) (IL-2 2.5 ng/mL); experiment: as above; conditions: 72 h
[22] = test system: NK-92 (IL-2 2.5 ng/mL); experiment: as above; conditions: 72 h
[23] = test system: KHYG-1 (IL-2 2.5 ng/mL); experiment: as above; conditions: 72 h
[24] = test system: normal primary NK cells, pool 1 (3 donors), resting (IL-2 0 ng/mL); experiment: as above; conditions: 72 h
[25] = test system: normal primary NK cells, pool 3 (3 donors) (IL-2 2.5 ng/mL); experiment: as above; conditions: 72 h
[26] = test system: NKL (IL-2 2.5 ng/mL); experiment: as above; conditions: 72 h
[27] = test system: KAI3 (IL-2 2.5 ng/mL); experiment: as above; conditions: 72 h
[28] = test system: SNK-6 (IL-2 2.5 ng/mL); experiment: as above; conditions: 72 h

Cn1c(Nc2ccc(C(F)(F)F)cc2)nc2cc(Oc3ccnc(-c4ncc(C(F)(F)F)[nH]4)c3)ccc21 [RAF265] (max concentration tested 1000 nM)
Conditions	drug sensitivity score
[1]	2.83
[2]	0.01
[3]	0.99
[4]	0.52
[5]	5.33
[6]	0.47
[7]	5.13
[8]	3.28
[9]	10.2
[10]	0
[11]	2.71
[12]	5.82
[13]	1.66
[14]	2.97

percent inhibition of viability [%]
Conditions	0.1 nM	1 nM	10 nM	100 nM	1000 nM
[15]	-1.93	-2.9	-2.68	12.1	30.9
[16]	-7.64	17.4	8.25	15.4	23
[17]	-5.99	-2.17	-3.34	-3.31	12
[18]	-5.8	-6.28	-1.83	4.39	18.3
[19]	-4.07	-2.24	1.77	6.57	15.5
[20]	-3.61	1.74	-1.22	22.4	46.9
[21]	-11	7.1	-0.02	-1.76	19.7
[22]	-17.8	-16.1	-9.27	11.7	59.3
[23]	-7.83	-6.28	-1.05	11.5	34.9
[24]	-7.48	14.2	11.3	45.5	69.8
[25]	-13	11.3	6.16	-1.81	8.78
[26]	2.6	2.04	1.53	9.44	31.3
[27]	-0.58	3.63	9.74	26.2	47.5
[28]	6.03	2.76	3.1	-14.9	44.9
